The results in this text go back to ChEMBL document CHEMBL1152563, “Identification of new agonists of urotensin-II from a cyclic peptide library” (Bioorg Med Chem, 2009).

Test [1] addresses T1, Urotensin-2 receptor (Homo sapiens) (UniProt Q9UKP6).
T1 sequence (whole entry): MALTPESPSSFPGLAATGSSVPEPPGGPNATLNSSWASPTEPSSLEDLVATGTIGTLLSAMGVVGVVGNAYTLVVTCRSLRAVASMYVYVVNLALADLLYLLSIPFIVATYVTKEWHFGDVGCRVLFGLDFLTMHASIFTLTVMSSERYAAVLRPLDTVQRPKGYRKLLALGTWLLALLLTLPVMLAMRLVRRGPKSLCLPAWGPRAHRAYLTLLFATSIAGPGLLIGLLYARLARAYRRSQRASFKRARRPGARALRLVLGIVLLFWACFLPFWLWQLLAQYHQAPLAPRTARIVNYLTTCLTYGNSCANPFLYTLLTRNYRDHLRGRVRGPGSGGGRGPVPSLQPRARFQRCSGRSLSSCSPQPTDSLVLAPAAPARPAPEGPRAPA
The test can be described thus: Agonist activity at human GPR14 expressed in HEK293 cells by calcium mobilization assay relative to urotensin 2. Format: functional, cell-based. Background: A change in cytosolic calcium serves as a functional read-out for many receptors and channels.

Test [2] has as its target T2, Urotensin-2 receptor (Homo sapiens, UniProt Q9UKP6).
T2 sequence (Q9UKP6 whole entry): T1 sequence (whole entry)
Nature of the test: Agonist activity at human GPR14 expressed in HEK293 cells by calcium mobilization assay. It is filed as functional, cell-based.

pEC50: −log10 of the molar value. Peptide text beside a SMILES is read from it.

As a reminder, the Emax is the maximal effect, on the per cent scale that the assay sets. Broadly, the pEC50 is the negative decadic logarithm of the EC50, by convention in mol/L.

As for `NCCCC[C@@H]1NC(=O)[C@H](Cc2c[nH]c3ccccc23)NC(=O)[C@H](CO)NC(=O)CNC(=O)[C@@H]2CCCN2C(=O)[C@H](Cc2ccccc2)NC1=O` (cyclo(FPGSWK)), the maximal effect (Emax) in test [1] turned out to be 96%. The pEC50 in test [2] was 8.00.
Take `NCCCC[C@@H]1NC(=O)[C@H](Cc2c[nH]c3ccccc23)NC(=O)[C@H](Cc2ccccc2)NC(=O)CNC(=O)[C@@H]2CCCN2C(=O)[C@H](Cc2ccccc2)NC1=O` (cyclo(FPGFWK)): the Emax in test [1] stood at 101%. In addition, the pEC50 in test [2] is 7.88.
The corresponding values for `NCCCC[C@@H]1NC(=O)[C@H](Cc2c[nH]c3ccccc23)NC(=O)[C@H](Cc2ccc(O)cc2)NC(=O)CNC(=O)[C@@H]2CCCN2C(=O)[C@H](Cc2ccccc2)NC1=O` (cyclo(FPGYWK)) are 102% and 7.12.
On to `NCCCC[C@@H]1NC(=O)[C@H](Cc2c[nH]c3ccccc23)NC(=O)[C@H](Cc2ccccc2)NC(=O)CNC(=O)[C@@H]2CCCN2C(=O)[C@H](Cc2c[nH]c3ccccc23)NC1=O` (cyclo(FWKWPG)), for which the Emax in test [1] amounted to 92%. Besides, the pEC50 in test [2] was 7.69.
The corresponding values for `NCCCC[C@@H]1NC(=O)[C@H](Cc2c[nH]c3ccccc23)NC(=O)[C@H](Cc2ccc(O)cc2)NC(=O)CNC(=O)[C@@H]2CCCN2C(=O)[C@H](Cc2ccc(O)cc2)NC1=O` (cyclo(GYWKYP)) are 86% and 7.90.
The corresponding values for `NCCCC[C@@H]1NC(=O)[C@H](Cc2c[nH]c3ccccc23)NC(=O)[C@H](CO)NC(=O)CNC(=O)[C@@H]2CCCN2C(=O)[C@H](Cc2ccc(O)cc2)NC1=O` (cyclo(GSWKYP)) are 108% and 8.07.
The corresponding values for `NCCCC[C@@H]1NC(=O)[C@H](Cc2c[nH]c3ccccc23)NC(=O)[C@H](Cc2ccccc2)NC(=O)CNC(=O)[C@@H]2CCCN2C(=O)[C@H](Cc2ccc(O)cc2)NC1=O` (cyclo(FWKYPG)) are 98% and 8.16.
In the case of `NCCCC[C@@H]1NC(=O)[C@H](Cc2c[nH]c3ccccc23)NC(=O)[C@H](CO)NC(=O)CNC(=O)[C@@H]2CCCN2C(=O)[C@H](Cc2c[nH]c3ccccc23)NC1=O` (cyclo(GSWKWP)), in test [1], the Emax was determined as 100%. Besides, in test [2], the pEC50 was 7.78.
